# In ChEMBL document CHEMBL4368926, “Arylpyridines, arylpyrimidines and related compounds as potential modulator agents of the VEGF, hTERT and c-Myc oncogenes” (Bioorg Med Chem, 2019):
# Columns and labels:
# [1] = Selectivity index, ratio of IC50 for HEK293 cells to IC50 for human MCF7 cells; settings: HEK293 cells versus MCF7 cells
# MCF7 = test: Cytotoxicity against human MCF7 cells assessed as decrease in cell viability after 2 days by MTT assay; assay type: functional, cell-based; settings: MCF7, 48 h
# HEK293 = test: Cytotoxicity against HEK293 cells assessed as decrease in cell viability after 2 days by MTT assay; assay type: ADME, cell-based; settings: Homo sapiens, HEK293, 48 h
# HT-29 [2] = test: Cytotoxicity against human HT-29 cells assessed as decrease in cell viability after 2 days by MTT assay; assay type: functional, cell-based; settings: HT-29, 48 h
# HT-29 [3] = test: Down-regulation of VEGFA protein expression in human HT-29 cells assessed as VEGFA protein level at 160 uM after 48 hrs by ELISA (reference value: 100%); assay type: functional
# HT-29 [4] = test: Down-regulation of VEGFRA mRNA expression in human HT-29 cells assessed as VEGFRA mRNA level at 160 uM after 48 hrs by RT-qPCR analysis (reference value: 100%); assay type: functional
# HT-29 [5] = test: Down-regulation of hTERT mRNA expression in human HT-29 cells assessed as hTERT mRNA level at 160 uM after 48 hrs by RT-qPCR analysis (reference value: 100%); assay type: functional
# HT-29 [6] = test: Down-regulation of c-Myc protein expression in human HT-29 cells assessed as c-Myc protein level at 160 uM after 48 hrs by ELISA (reference value: 100%); assay type: functional
# HT-29 [7] = test: Down-regulation of c-Myc mRNA expression in human HT-29 cells assessed as c-Myc mRNA level at 160 uM after 48 hrs by RT-qPCR analysis (reference value: 100%); assay type: functional
# [8] = Selectivity index, ratio of IC50 for HEK293 cells to IC50 for human HT-29 cells; assay type: toxicity; settings: HEK293 cells versus HT-29 cells, read-out: Ratio IC50
# HT-29 [9] = test: Down-regulation of VEGFA protein expression in human HT-29 cells assessed as VEGFA protein level at 40 uM after 48 hrs by ELISA (reference value: 100%); assay type: functional
# HT-29 [10] = test: Down-regulation of VEGFRA mRNA expression in human HT-29 cells assessed as VEGFRA mRNA level at 40 uM after 48 hrs by RT-qPCR analysis (reference value: 100%); assay type: functional
# HT-29 [11] = test: Down-regulation of c-Myc protein expression in human HT-29 cells assessed as c-Myc protein level at 40 uM after 48 hrs by ELISA (reference value: 100%); assay type: functional
# HT-29 [12] = test: Down-regulation of c-Myc mRNA expression in human HT-29 cells assessed as c-Myc mRNA level at 40 uM after 48 hrs by RT-qPCR analysis (reference value: 100%); assay type: functional
# HT-29 [13] = test: Down-regulation of hTERT mRNA expression in human HT-29 cells assessed as hTERT mRNA level at 40 uM after 48 hrs by RT-qPCR analysis (reference value: 100%); assay type: functional
# HT-29 [14] = test: Down-regulation of VEGFA protein expression in human HT-29 cells assessed as VEGFA protein level at 80 uM after 48 hrs by ELISA (reference value: 100%); assay type: functional
# HT-29 [15] = test: Down-regulation of VEGFRA mRNA expression in human HT-29 cells assessed as VEGFRA mRNA level at 80 uM after 48 hrs by RT-qPCR analysis (reference value: 100%); assay type: functional
# HT-29 [16] = test: Down-regulation of c-Myc protein expression in human HT-29 cells assessed as c-Myc protein level at 80 uM after 48 hrs by ELISA (reference value: 100%); assay type: functional
# HT-29 [17] = test: Down-regulation of hTERT mRNA expression in human HT-29 cells assessed as hTERT mRNA level at 80 uM after 48 hrs by RT-qPCR analysis (reference value: 100%); assay type: functional
# HT-29 [18] = test: Down-regulation of c-Myc mRNA expression in human HT-29 cells assessed as c-Myc mRNA level at 80 uM after 48 hrs by RT-qPCR analysis (reference value: 100%); assay type: functional
# HT-29 [19] = test: Down-regulation of hTERT mRNA expression in human HT-29 cells assessed as hTERT mRNA level at 100 uM after 48 hrs by RT-qPCR analysis (reference value: 100%); assay type: functional
# HT-29 [20] = test: Down-regulation of VEGFA protein expression in human HT-29 cells assessed as VEGFA protein level at 100 uM after 48 hrs by ELISA (reference value: 100%); assay type: functional
# HT-29 [21] = test: Down-regulation of VEGFRA mRNA expression in human HT-29 cells assessed as VEGFRA mRNA level at 100 uM after 48 hrs by RT-qPCR analysis (reference value: 100%); assay type: functional
# HT-29 [22] = test: Down-regulation of c-Myc protein expression in human HT-29 cells assessed as c-Myc protein level at 100 uM after 48 hrs by ELISA (reference value: 100%); assay type: functional
# HT-29 [23] = test: Down-regulation of c-Myc mRNA expression in human HT-29 cells assessed as c-Myc mRNA level at 100 uM after 48 hrs by RT-qPCR analysis (reference value: 100%); assay type: functional
# HT-29 [24] = test: Down-regulation of VEGFRA mRNA expression in human HT-29 cells assessed as VEGFRA mRNA level at 20 uM after 48 hrs by RT-qPCR analysis (reference value: 100%); assay type: functional
# HT-29 [25] = test: Down-regulation of c-Myc protein expression in human HT-29 cells assessed as c-Myc protein level at 20 uM after 48 hrs by ELISA (reference value: 100%); assay type: functional
# HT-29 [26] = test: Down-regulation of hTERT mRNA expression in human HT-29 cells assessed as hTERT mRNA level at 20 uM after 48 hrs by RT-qPCR analysis (reference value: 100%); assay type: functional
# HT-29 [27] = test: Down-regulation of VEGFA protein expression in human HT-29 cells assessed as VEGFA protein level at 20 uM after 48 hrs by ELISA (reference value: 100%); assay type: functional
# HT-29 [28] = test: Down-regulation of c-Myc mRNA expression in human HT-29 cells assessed as c-Myc mRNA level at 20 uM after 48 hrs by RT-qPCR analysis (reference value: 100%); assay type: functional
SMILES,selectivity ratio [1],IC50 (MCF7) [µM],IC50 (HEK293) [µM],IC50 (HT-29 [2]) [µM],selectivity ratio [8],other results
c1ccc(-c2cncnc2)cc1,> 50,7,> 400,> 400,,
COc1ccc(N2CCOCC2)cc1,7,73,> 400,180,3,Activity (HT-29 [3]): 64%; Activity (HT-29 [4]): 66%; Activity (HT-29 [5]): 63%; Activity (HT-29 [6]): 100%; Activity (HT-29 [7]): 96%
COc1ccc(-c2cccnc2)cc1OC,> 2,223,> 400,> 400,,
c1ccc(N2CCOCC2)cc1,5,120,> 400,240,3,Activity (HT-29 [3]): 79%; Activity (HT-29 [4]): 79%; Activity (HT-29 [5]): 57%; Activity (HT-29 [6]): 95%; Activity (HT-29 [7]): 67%
COc1ccc(-c2cccnc2)c(OC)c1,< 1,210,100,59,2,Activity (HT-29 [9]): 52%; Activity (HT-29 [10]): 32%; Activity (HT-29 [11]): 56%; Activity (HT-29 [12]): 39%; Activity (HT-29 [13]): 28%
c1ccc(N2CCCCC2)cc1,4,157,> 400,120,5,Activity (HT-29 [14]): 75%; Activity (HT-29 [15]): 89%; Activity (HT-29 [16]): 95%; Activity (HT-29 [17]): 41%; Activity (HT-29 [18]): 52%
Oc1ccccc1-c1ccccn1,57,7,390,197,2,Activity (HT-29 [19]): 36%; Activity (HT-29 [20]): 65%; Activity (HT-29 [21]): 31%; Activity (HT-29 [22]): 62%; Activity (HT-29 [23]): 17%
COc1ccc(-c2ccccn2)c(OC)c1,< 1,> 400,234,> 400,< 1,
COc1ccc(-c2ccccn2)cc1OC,< 1,210,170,56,3,Activity (HT-29 [24]): 8%; Activity (HT-29 [9]): 48%; Activity (HT-29 [11]): 100%; Activity (HT-29 [12]): 38%; Activity (HT-29 [13]): 20%
Oc1ccccc1-c1ncccn1,14,41,> 400,> 400,,
COc1ccc(-c2ncccn2)c(OC)c1,< 1,130,20,30,< 1,Activity (HT-29 [24]): 33%; Activity (HT-29 [25]): 63%; Activity (HT-29 [26]): 85%; Activity (HT-29 [27]): 48%; Activity (HT-29 [28]): 18%
COc1cccc(N2CCCC2)c1,3,51,210,310,3,
c1ccc(N2CCCC2)cc1,,> 400,> 400,> 400,,
COc1ccc(N2CCCCC2)cc1,2,71,100,120,,
COc1ccc(-c2cncnc2)cc1OC,2,200,> 400,> 400,,
COc1ccc(-c2ncccn2)cc1OC,> 9,48,> 400,> 400,,
COc1ccc(-c2cncnc2)c(OC)c1,,> 400,> 400,> 400,,
Oc1ccccc1-c1cncnc1,2,61,90,380,< 1,
COc1ccc(N2CCCC2)cc1,5,> 400,350,210,3,Activity (HT-29 [19]): 35%; Activity (HT-29 [20]): 79%; Activity (HT-29 [21]): 55%; Activity (HT-29 [22]): 100%; Activity (HT-29 [23]): 79%
COc1cccc(N2CCOCC2)c1,5,100,> 400,160,3,Activity (HT-29 [3]): 50%; Activity (HT-29 [4]): 54%; Activity (HT-29 [5]): 72%; Activity (HT-29 [6]): 100%; Activity (HT-29 [7]): 62%
C=CCc1ccc(O)c(-c2ccc(O)c(CC=C)c2)c1 [HONOKIOL],2,35,40,25,2,Activity (HT-29 [24]): 36%; Activity (HT-29 [25]): 53%; Activity (HT-29 [26]): 45%; Activity (HT-29 [27]): 55%; Activity (HT-29 [28]): 45%
